Results reported in PMC9321829 (Chembiochem, 2022).

Molecular target: T1, TAL amo (Aeromonas molluscorum, UniProt R1H7C8)
T1 sequence (R1H7C8 1-531): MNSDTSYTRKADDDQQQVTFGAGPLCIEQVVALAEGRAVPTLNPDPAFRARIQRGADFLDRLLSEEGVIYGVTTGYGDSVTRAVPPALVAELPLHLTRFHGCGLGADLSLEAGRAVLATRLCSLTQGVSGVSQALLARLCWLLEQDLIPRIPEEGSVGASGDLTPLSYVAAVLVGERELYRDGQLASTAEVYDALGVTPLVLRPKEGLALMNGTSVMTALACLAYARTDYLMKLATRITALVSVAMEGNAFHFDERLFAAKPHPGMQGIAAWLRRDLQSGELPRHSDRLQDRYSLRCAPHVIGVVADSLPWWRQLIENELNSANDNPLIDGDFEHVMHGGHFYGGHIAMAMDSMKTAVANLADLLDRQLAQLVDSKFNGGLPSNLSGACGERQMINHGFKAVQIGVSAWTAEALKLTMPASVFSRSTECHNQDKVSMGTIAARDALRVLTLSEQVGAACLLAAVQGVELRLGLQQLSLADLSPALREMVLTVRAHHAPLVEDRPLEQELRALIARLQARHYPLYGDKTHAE
Experiment: UV assay, cinnamic acid formation at […] nm
Format: biochemical
Settings: 10 mM substrate, 20 mM PBS pH 7.5, 25 °C

For `N[C@@H](Cc1ccccc1)C(=O)O` [L-phenylalanine], the “UV assay, cinnamic acid formation at 290 nm” value was “They presented a slight activity towards L‐phenylalanine”.
